Experimental findings from US20050050594A1, “Tryptophan synthase as a site of herbicide action” (priority 1999, published 2005) are described below.

SMILES strings stand for the structures. Where a name gives a salt, the structure may show the parent alone. Read-outs that look alike come from different tables or passages of the source.

Test [1] deals with T1, Salmonella typhimurium tryptophan synthase holoenzyme (α2β2), TSα reaction (Salmonella typhimurium, UniProt P00929).
T1 construct: made in house; host or cells: E. coli strain CB149pSTB7
T1 sequence (P00929 whole entry): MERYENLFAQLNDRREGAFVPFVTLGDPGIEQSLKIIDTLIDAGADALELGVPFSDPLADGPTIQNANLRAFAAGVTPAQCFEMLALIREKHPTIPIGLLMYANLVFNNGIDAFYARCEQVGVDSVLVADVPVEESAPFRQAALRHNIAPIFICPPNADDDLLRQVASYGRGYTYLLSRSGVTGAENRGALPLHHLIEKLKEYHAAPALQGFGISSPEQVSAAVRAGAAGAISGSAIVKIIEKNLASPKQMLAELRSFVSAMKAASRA
T1 sequence (P0A2K1 2-397, further chain): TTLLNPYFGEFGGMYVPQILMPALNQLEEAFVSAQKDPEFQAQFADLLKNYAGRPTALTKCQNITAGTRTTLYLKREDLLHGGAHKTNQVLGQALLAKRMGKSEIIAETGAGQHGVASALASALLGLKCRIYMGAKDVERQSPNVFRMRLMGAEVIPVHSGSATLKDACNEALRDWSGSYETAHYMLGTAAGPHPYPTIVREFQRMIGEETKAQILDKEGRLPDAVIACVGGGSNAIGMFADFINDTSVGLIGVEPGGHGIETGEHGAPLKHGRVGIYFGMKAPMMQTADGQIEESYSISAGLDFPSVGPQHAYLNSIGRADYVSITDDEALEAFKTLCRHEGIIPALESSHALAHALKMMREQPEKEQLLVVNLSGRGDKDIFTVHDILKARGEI
Put plainly: Inhibition of tryptophan synthase by the TSα reaction, microtiter kinetic coupled enzyme assay. The conditions noted are these: for IC50: Salmonella holoenzyme, 30 min at 37° C., 100 μM IGP. The format is biochemical. The text has this: Inhibitors of TS were identified by their ability to inhibit the production of glyceraldehyde-3-P by the TSα reaction of the Salmonella typhimurium holoenzyme (α2β2) in the presence of a limiting amount of indole-3-glycerolphosphate and an excess of serine
The assay was developed as a new microtiter plate kinetic enzyme assay based on the combined methods of Creighton (EurJBch 13:1-10, 1970) and Creighton and Yanofsky (JBC 241:980, 1966) with modifications. The rate of glyceraldehyde production was measured as the linear […] (spectrophotometric absorbance at 340 nm) in the presence of glyceraldehyde-3-phosphate dehydrogenase in a coupled enzyme assay.
The assay solution contained a test inhibitor compound, 50 mM Tris-Cl (pH 7.8), 6 mM sodium arsenate, 5 μg/ml pyridoxal phosphate, 0.5 mM DTT, 0.18M NaCl, 60 mM serine, 1.6 mM NAD+, 8 e.u./ml yeast glyceraldehyde-3-phosphate dehydrogenase (Sigma, Catalog #G2647; Kirschner et al., Eur J Bch, 1975, 60:513 and approximately 1.5 e.u. Salmonella TS. 100 μM IGP was added to start the reaction, which was run at 37° C. and using 300 μl per assay in a microtiter plate.
The substrate IGP was used at 1.5 to 2 times its Km concentration to enhance the likelihood of identifying weak inhibitors, binding at the substrate binding site. This approach to identifying enzyme inhibitors was novel, since an excess of all substrates, (at least 5-times the Km value of each), is conventionally used in the measurement of enzyme activity.
Potential inhibitors were evaluated by adding 100 μM inhibitor (equimolar to substrate IGP):or less, in a 1:1 dilution series down from 100 μM, until the inhibition measured was less than 15%. Reaction rates at Vmax were compared in the presence and absence of inhibitors.
In addition, some weaker inhibitors were identified following preincubation of the inhibitor with the TS assay mix for 24 hrs prior to the addition of IGP. The identifying weaker inhibitors is to aid in a quantitative structure activity relationship (QSAR) evaluation, or to identify new herbicidal inhibitor leads. The previously known inhibitor IPP was used as a standard in all tests, where the I50 for IPP was 1-2 uM.

Test [2] concerns Arabidopsis thaliana. As to the kind of experiment: Herbicidal activity and tryptophan reversal on Arabidopsis grown on agar medium. The arrangement: key: 0 - no effect; 9 - total kill; C - chlorotic seedlings 4-6 days after treatment. It is filed as in vivo. The procedure: In this experiment, TS inhibitors were tested on Arabidopsis thaliana grown Murashige minimal organics medium, (obtained from Life Technologies, Grand Island, N.Y.), containing 0.7% agar. Compounds were tested at different concentrations to assess their herbicidal activity.

The target of test [3] is T2, Arabidopsis TS enzyme (Arabidopsis thaliana, UniProt Q42529).
T2 construct: GST (N, cleaved yes); made in house; host or cells: E. coli DH5α (pGEX-2T constructs)
T2 sequence (Q42529 with tags, fused parts or gaps): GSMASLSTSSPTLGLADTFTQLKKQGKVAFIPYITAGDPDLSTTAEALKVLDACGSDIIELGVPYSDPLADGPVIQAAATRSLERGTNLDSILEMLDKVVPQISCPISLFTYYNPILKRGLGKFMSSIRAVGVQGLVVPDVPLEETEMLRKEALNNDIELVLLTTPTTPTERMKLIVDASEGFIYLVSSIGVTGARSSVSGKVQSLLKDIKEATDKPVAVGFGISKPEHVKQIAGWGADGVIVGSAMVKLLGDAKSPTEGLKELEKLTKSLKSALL
T2 sequence (P14671 with tags, fused parts or gaps partner): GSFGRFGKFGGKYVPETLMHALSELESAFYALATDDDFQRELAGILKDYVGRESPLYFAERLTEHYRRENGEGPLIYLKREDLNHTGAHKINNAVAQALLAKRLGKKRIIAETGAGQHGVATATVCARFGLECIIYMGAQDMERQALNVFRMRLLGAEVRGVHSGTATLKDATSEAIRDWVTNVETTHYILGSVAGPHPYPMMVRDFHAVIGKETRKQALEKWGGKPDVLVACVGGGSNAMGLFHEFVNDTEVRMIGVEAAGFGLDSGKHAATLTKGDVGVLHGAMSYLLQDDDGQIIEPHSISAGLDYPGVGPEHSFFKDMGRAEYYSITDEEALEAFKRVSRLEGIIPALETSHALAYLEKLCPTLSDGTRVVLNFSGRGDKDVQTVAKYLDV
Put plainly: TSα assay with recombinant plant TSα and TSβ expressed in E. coli. The format is biochemical. The settings on record: inhibitor 82 uM; pAC 758 (1.5 ug) + pAC 755 (3 ug). As for the experimental part:
The plant TS proteins were expressed as fusion proteins with glutathione transferase (GST) to facilitate purification. After purification, the GST protein was cleaved off with thrombin as described above before the plant TS assays were performed. After thrombin cleavage, both TSα and TSβ-subunit proteins retained a Gly-Ser residue on the N-terminal of the protein in addition to the TS sequence. […]
The TSα enzyme assay was conducted as described in Example 3 for Salmonella TSα.
Specifically, phenylthiophosphonic acid compounds were used. The TSα assay conditions were as described for Salmonella TSα in Example 3 except that recombinant plant proteins were used instead of the Salmonella enzyme.

Setting [4] is: TSα reaction, read-out: TS inhibition I50.

On to `CP(=O)(O)CCCCSc1ccccc1N` [Phosphinic acid, {4-[(o-aminophenyl)thio]butyl}methyl-], for which the IC50 in test [1] (setting [4]) amounted to 100000 nM.
With `CCOP(=O)(CCCCSc1cc(Br)ccc1N)OCC` [Phosphonic acid, {4-[2-amino-5-bromophenyl)thio]butyl}-, diethyl ester], the herbicidal injury rating was 1 in test [2] (herbicide 7.8 μM); 1 in test [2] (herbicide 16 μM); 1 in test [2] (herbicide 31 μM); 1 in test [2] (herbicide 63 μM); 4 in test [2] (herbicide 125 μM); 5 in test [2] (herbicide 250 μM). The results for the herbicidal injury rating in test [2] (herbicide 500 μM) and in test [2] (herbicide 1000 μM) were 6 and 8, respectively.
On to `Nc1ccc(Br)cc1SCCCCP(=O)(O)O` [Phosphonic acid, {4-[2-amino-5-bromophenyl)thio]butyl}-], for which the IC50 in test [1] (TS inhibition I50, TSα reaction) was 70 nM. Moreover, the “Enzyme activity, % of control” value in test [1] (inhibitor 30 nM) is recorded as 70.5 % of control; in test [1] (inhibitor 100 nM), 38.5 % of control; in test [1] (inhibitor 300 nM), 24.7 % of control; in test [1] (inhibitor 1000 nM), 8.7 % of control. The herbicidal injury rating stood at 1 in test [2] (herbicide 7.8 μM); 1 in test [2] (herbicide 16 μM); 2 in test [2] (herbicide 31 μM); 3 in test [2] (herbicide 63 μM); 3 in test [2] (herbicide 125 μM); 4 in test [2] (herbicide 250 μM). For the same compound, the herbicidal injury rating in test [2] (herbicide 500 μM) and in test [2] (herbicide 1000 μM) was 4 each time.
Turning to `Nc1cccnc1SCCCCP(=O)(O)O` [Phosphonic acid, {4-[3-amino-2-phridyl)thio]butyl}-], in test [1] (setting [4]), the IC50 was 5000 nM.
As for `CCOP(=O)(CCCCSc1cc(Cl)ccc1N)OCC` [Phosphonic acid, {4-[(2-amino-5-chlorophenyl)thio]butyl}-, diethyl ester], the herbicidal injury rating was 0 in test [2] (herbicide 16 μM); 1 in test [2] (herbicide 31 μM); 1 in test [2] (herbicide 63 μM); 3 in test [2] (herbicide 125 μM); 5 in test [2] (herbicide 250 μM); 6 in test [2] (herbicide 500 μM). Besides, in test [2] (herbicide 1000 μM), the herbicidal injury rating is 7.
As for `Nc1ccc(Cl)cc1SCCCCP(=O)(O)O` [Phosphonic acid, {4-[(2-amino-5-chlorophenyl)thio]butyl}-], the herbicidal injury rating is recorded as 0 in test [2] (herbicide 7.8 μM); 1 in test [2] (herbicide 16 μM); 1 in test [2] (herbicide 31 μM); 1 in test [2] (herbicide 63 μM); 3 in test [2] (herbicide 125 μM); 3 in test [2] (herbicide 250 μM). Also, the herbicidal injury rating in test [2] (herbicide 500 μM) and in test [2] (herbicide 1000 μM) was 3 each time.
On to `Nc1cc(C(F)(F)F)ccc1SCCCCP(=O)(O)O` [Phosphonic acid, {4-[(2-amino-alpha,alpha,alpha-trifluoro-p-tolyl)thio]butyl}-], for which the IC50 in test [1] (setting [4]) is 7000 nM.
Consider `Nc1ccccc1SCC=CCP(=O)(O)O` [Phosphonic acid, {4-[(o-aminophenyl)thio]-2-butenyl}-], for which the IC50 in test [1] (setting [4]) was determined as 250 nM. Also, the “Enzyme activity, % of control” value in test [1] (inhibitor 100 nM) is on record as 70.7 % of control; in test [1] (inhibitor 300 nM) it was 43.4 % of control; in test [1] (inhibitor 1000 nM), 25.3 % of control; in test [1] (inhibitor 3000 nM) it was 13.8 % of control; in test [1] (inhibitor 10000 nM), 4.5 % of control.
`Nc1ccccc1SCCCCP(=O)(O)O` [Phosphonic acid, {4-[(o-aminophenyl)thio]butyl}-, dilithium salt]: the IC50 in test [1] (setting [4]) is 400 nM.
Consider `NC1CCCCC1.NC1CCCCC1.O=P(O)(O)CCCC[S+]([O-])c1ccccc1O` (stereo not drawn) [Phosphonic acid, {4-[(o-hydroxyphenyl)sulfinyl]butyl}-, with cyclohexylamine (1:2)], for which the herbicidal rating in test [2] (herbicide 7.8 mM + 100 μM Trp) was determined as 0; in test [2] (herbicide 7.8 mM, no Trp), 5; in test [2] (herbicide 16 mM + 100 μM Trp) it was 0; in test [2] (herbicide 16 mM, no Trp) it was 6; in test [2] (herbicide 31 mM + 100 μM Trp), 3; in test [2] (herbicide 31 mM, no Trp), 6. The herbicidal rating in test [2] (herbicide 63 mM + 100 μM Trp) was found to be 5; in test [2] (herbicide 63 mM, no Trp) it was 6; in test [2] (herbicide 125 mM + 100 μM Trp) it was 5; in test [2] (herbicide 125 mM, no Trp) it was 6; in test [2] (herbicide 250 mM + 100 μM Trp) it was 5; in test [2] (herbicide 250 mM, no Trp), 7Y. Besides, the herbicidal rating in test [2] (herbicide 500 mM + 100 μM Trp) is 5; in test [2] (herbicide 500 mM, no Trp) it was 7Y; in test [2] (herbicide 1000 mM + 100 μM Trp), 5; in test [2] (herbicide 1000 mM, no Trp), 8.
Consider `O=P(O)(O)CC=CCSc1ccccc1O` [Phosphonic acid, {4-[(o-hydroxyphenyl)thio]-2-butenyl}-], for which, in test [3], the “TSα activity, % of control” value is given as 14.7 % of control and the “TSα activity, relative Vmax” value worked out at 0.909 mOD/min.
With `CCOP(=O)(CCCCSc1ccccc1O)OCC` [Phosphonic acid, {4-[(o-hydroxyphenyl)thio]butyl}-, diethyl ester], the herbicidal injury rating is reported as 0 in test [2] (herbicide 7.8 μM); 1 in test [2] (herbicide 16 μM); 3 in test [2] (herbicide 31 μM); 5 in test [2] (herbicide 63 μM); 6 in test [2] (herbicide 125 μM); 7 in test [2] (herbicide 250 μM). In addition, the herbicidal injury rating is recorded as 8 in test [2] (herbicide 500 μM) and 9 in test [2] (herbicide 1000 μM).
